For orientation: IC50 means the point on the concentration scale where inhibition reaches its midpoint.

Like-named read-outs stand apart in the source and are kept apart here. Bounds are passed on as bounds.

The source of these data is US12685735B2 (Foghorn Therapeutics Inc., priority 2020, dated 2026).

One experiment addresses BRM (Homo sapiens, UniProt P51531). Kind of experiment: ATPase catalytic activity assay of BRM (ADP-Glo). Format: biochemical. The note with it: for IC50: read-out: BRM IC50 (μM)*. The procedure, abridged: (§1)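 ATPase activity of BRG-1 or BRM was read by ADP-Glo. Residual ATP was depleted (40 min, room temperature), then ADP was converted to ATP (60 min, room temperature) and measured as luciferase luminescence.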
A general note: In ADP-Glo the light output rises with the ADP produced.

The target in a further experiment is BRG-1 (Homo sapiens, UniProt P51532). Kind of experiment: ATPase catalytic activity assay of BRG-1 (ADP-Glo). The note with it: ATPase catalytic activity, ADP-Glo; for IC50: read-out: BRG1 IC50 (μM)*; for Emax: read-out: BRG1 Max % Inhibition. Format: biochemical. The procedure, abridged:
as §1

Sequence of BRG-1 (P51532 whole entry): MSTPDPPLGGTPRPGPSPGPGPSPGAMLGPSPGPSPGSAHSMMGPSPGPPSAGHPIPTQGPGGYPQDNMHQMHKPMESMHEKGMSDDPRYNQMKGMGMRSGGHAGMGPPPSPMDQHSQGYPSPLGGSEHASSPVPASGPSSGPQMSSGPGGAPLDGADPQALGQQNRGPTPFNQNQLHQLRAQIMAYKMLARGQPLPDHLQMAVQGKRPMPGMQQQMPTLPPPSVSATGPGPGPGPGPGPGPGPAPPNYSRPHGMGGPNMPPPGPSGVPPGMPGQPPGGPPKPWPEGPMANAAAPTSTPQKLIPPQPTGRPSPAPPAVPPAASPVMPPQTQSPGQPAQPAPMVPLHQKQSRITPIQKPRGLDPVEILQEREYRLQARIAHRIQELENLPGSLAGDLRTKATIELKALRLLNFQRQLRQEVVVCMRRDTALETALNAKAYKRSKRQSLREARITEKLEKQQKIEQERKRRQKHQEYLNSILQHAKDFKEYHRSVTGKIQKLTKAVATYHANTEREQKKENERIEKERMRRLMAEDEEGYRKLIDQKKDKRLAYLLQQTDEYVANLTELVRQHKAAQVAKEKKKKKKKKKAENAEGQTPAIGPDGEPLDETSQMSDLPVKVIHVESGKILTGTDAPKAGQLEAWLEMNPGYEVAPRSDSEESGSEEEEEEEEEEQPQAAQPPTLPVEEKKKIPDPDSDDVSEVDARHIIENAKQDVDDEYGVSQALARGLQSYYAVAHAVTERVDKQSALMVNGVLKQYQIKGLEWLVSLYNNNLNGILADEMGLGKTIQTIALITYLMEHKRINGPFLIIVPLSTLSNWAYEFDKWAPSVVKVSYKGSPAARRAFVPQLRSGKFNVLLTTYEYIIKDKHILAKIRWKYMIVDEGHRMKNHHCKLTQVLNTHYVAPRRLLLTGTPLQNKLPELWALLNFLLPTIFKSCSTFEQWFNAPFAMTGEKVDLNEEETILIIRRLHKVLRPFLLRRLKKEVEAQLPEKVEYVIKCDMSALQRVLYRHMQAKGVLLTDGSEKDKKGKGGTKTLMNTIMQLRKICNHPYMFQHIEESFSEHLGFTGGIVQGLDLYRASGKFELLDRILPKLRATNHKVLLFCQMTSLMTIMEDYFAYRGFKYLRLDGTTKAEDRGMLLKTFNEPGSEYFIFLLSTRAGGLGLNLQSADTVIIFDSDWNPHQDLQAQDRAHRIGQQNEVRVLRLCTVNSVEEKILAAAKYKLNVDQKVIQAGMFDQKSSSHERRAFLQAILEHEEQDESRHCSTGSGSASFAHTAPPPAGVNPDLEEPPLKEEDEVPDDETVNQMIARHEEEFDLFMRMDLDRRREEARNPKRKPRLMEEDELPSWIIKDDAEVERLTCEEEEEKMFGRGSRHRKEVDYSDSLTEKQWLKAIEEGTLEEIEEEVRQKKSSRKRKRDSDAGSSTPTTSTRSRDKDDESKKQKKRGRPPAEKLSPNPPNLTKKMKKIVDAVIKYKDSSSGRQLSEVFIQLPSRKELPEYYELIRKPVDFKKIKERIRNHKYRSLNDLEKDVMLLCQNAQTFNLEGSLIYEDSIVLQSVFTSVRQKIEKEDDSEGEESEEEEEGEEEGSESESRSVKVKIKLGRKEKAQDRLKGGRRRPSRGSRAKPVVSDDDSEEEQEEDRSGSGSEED
Sequence of BRM (P51531 whole entry): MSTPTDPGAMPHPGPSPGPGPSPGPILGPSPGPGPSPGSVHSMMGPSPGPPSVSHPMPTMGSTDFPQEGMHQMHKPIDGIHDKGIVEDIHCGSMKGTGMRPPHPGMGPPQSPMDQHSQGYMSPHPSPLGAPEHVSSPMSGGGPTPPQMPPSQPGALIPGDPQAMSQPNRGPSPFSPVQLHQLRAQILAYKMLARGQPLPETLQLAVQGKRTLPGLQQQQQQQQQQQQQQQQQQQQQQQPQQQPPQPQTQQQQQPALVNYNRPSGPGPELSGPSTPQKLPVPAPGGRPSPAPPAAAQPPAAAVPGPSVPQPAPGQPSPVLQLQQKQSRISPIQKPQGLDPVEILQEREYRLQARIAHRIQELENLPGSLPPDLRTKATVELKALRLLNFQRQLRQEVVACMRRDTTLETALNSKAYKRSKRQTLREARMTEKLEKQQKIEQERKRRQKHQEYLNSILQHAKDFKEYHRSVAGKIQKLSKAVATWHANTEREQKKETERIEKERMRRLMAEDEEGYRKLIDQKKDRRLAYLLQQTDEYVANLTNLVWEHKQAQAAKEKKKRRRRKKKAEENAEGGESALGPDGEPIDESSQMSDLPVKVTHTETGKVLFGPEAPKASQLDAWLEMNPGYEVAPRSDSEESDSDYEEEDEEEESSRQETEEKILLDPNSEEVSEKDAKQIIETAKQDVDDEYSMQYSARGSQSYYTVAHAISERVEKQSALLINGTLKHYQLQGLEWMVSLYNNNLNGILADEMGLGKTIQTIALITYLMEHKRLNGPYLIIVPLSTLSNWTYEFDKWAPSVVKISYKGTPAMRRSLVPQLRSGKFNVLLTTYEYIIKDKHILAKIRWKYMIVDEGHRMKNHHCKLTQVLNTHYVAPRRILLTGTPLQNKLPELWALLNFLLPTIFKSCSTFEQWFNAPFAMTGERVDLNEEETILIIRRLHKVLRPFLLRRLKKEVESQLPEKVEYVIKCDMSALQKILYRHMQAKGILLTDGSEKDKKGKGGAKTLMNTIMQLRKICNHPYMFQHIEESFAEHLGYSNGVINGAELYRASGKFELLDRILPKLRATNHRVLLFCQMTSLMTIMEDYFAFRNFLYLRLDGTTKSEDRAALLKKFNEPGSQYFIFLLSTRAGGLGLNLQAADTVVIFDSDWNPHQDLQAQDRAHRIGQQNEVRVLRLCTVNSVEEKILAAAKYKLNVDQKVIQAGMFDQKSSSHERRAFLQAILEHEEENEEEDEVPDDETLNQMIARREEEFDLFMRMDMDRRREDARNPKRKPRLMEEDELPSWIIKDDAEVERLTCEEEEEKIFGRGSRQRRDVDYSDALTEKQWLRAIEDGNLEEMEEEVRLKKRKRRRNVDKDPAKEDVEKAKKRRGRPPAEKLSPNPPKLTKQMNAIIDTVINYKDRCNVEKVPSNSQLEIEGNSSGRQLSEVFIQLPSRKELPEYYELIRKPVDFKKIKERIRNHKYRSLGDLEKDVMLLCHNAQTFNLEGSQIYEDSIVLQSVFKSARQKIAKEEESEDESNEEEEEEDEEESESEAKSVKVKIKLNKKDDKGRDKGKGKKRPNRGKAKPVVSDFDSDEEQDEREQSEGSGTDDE

`COc1cc(-c2csc(NC(=O)CNC(=O)c3ccc4c(c3)[C@](C)(C#N)COC4)n2)ccn1` [Compound 400, (R)-4-cyano-N-(2-((4-(2-methoxypyridin-4-yl)thiazol-2-yl)amino)-2-oxoethyl)-4-methylisochromane-6-carboxamide]: on BRM, the “BRM Max % Inhibition” value was greater than 95% and the IC50 is less than 0.1 µM. Further, at BRG-1, the IC50 was in the range of 0.1 to 1 µM and the Emax was greater than 95%.

Take `Cn1ccc(-c2cccc(-c3csc(NC(=O)CNC(=O)c4ccc5c(c4)[C@@](C)(CO)CC5)n3)n2)n1` [Compound 192, (3S)-3-(hydroxymethyl)-3-methyl-N-[2-[[4-[6-(1-methylpyrazol-3-yl)-2-pyridyl]thiazol-2-yl]amino]-2-oxo-ethyl]indane-5-carboxamide]: on BRM, the “BRM Max % Inhibition” value is listed as greater than 90% and the IC50 lay within 0.1 to 1 µM. Also, at BRG-1, the IC50 is 1 to 5 µM and the Emax is greater than 60%.

For `CC1(CO)CCc2ccc(C(=O)NCC(=O)Nc3nc(-c4cccc(-c5cccc(C#N)c5)c4)cs3)cc21` (stereo not shown) [Compound 233, N-[2-[[4-[3-(3-cyanophenyl)phenyl]thiazol-2-yl]amino]-2-oxo-ethyl]-3-(hydroxymethyl)-3-methyl-indane-5-carboxamide], on BRM, the “BRM Max % Inhibition” value was greater than 95% and the IC50 is less than 0.1 µM. Besides, on BRG-1, the IC50 lay within 0.1 to 1 µM and the Emax was greater than 80%.

Regarding `C[C@@H]1CN(c2cccc(-c3csc(NC(=O)CNC(=O)c4ccc5c(c4)[C@@](C)(C#N)CN5C)n3)c2)C[C@H](C)O1` [Compound 368, (R)-3-cyano-N-(2-((4-(3-((cis)-2,6-dimethylmorpholino)phenyl)thiazol-2-yl)amino)-2-oxoethyl)-1,3-dimethylindoline-5-carboxamide], at BRM, the “BRM Max % Inhibition” value is given as greater than 85% and the IC50 is 0.1 to 1 µM. On BRG-1, the IC50 fell in the range of 1 to 5 µM and the Emax is greater than 85%.

Turning to `C[C@@H]1CN(c2cccc(-c3csc(NC(=O)CNC(=O)c4cccc(C5(C(F)F)COC5)c4)n3)c2)C[C@H](C)O1` [Compound 419, 3-(3-(difluoromethyl)oxetan-3-yl)-N-(2-((4-(3-((cis)-2,6-dimethylmorpholino)phenyl)thiazol-2-yl)amino)-2-oxoethyl)benzamide], on BRM (30 nM BRM, 400 μM ATP), the “BRM Max % Inhibition” value is listed as greater than 95% and the IC50 is less than 0.1 µM. On BRG-1 (30 nM BRG-1, 400 μM ATP), the IC50 lay in the range of 0.1 to 1 µM and the Emax is greater than 95%.

Consider `O=C(CNC(=O)c1ccc2c(c1)[C@@](F)(C(F)F)COC2)Nc1nc(-c2cc(F)cc(N3CCC3)c2)cs1` [Compound 277, (S)-N-(2-((4-(3-(azetidin-1-yl)-5-fluorophenyl)thiazol-2-yl)amino)-2-oxoethyl)-4-(difluoromethyl)-4-fluoroisochromane-6-carboxamide], for which, on BRM, the “BRM Max % Inhibition” value is reported as greater than 95% and the IC50 was less than 0.1 µM. Further, on BRG-1, the IC50 was less than 0.1 µM and the Emax was greater than 95%.

Consider `C[C@@H]1CN(c2cccc(-c3csc(NC(=O)CNC(=O)c4ccc5c(c4)[C@H](CO)CC5)n3)n2)C[C@H](C)O1` [Compound 162, (3R)-N-[2-[[4-[6-[(cis)-2,6-dimethylmorpholin-4-yl]-2-pyridyl]thiazol-2-yl]amino]-2-oxo-ethyl]-3-(hydroxymethyl)indane-5-carboxamide], for which, at BRM, the “BRM Max % Inhibition” value is on record as greater than 70% and the IC50 was 0.1 to 1 µM. On BRG-1, the IC50 is greater than 5 µM and the Emax was greater than 40%.

`C[C@@]1(C#N)COCc2ccc(C(=O)NCC(=O)Nc3nc(-c4cccc(C5CCO5)c4)cs3)cc21` (stereo partly drawn) [Compound 371, (R)-4-cyano-4-methyl-N-(2-((4-(3-(oxetan-2-yl)phenyl)thiazol-2-yl)amino)-2-oxoethyl)isochromane-6-carboxamide]: on BRM, the “BRM Max % Inhibition” value was greater than 95% and the half-maximal inhibitory concentration (IC50) was less than 0.1 µM. At BRG-1, the IC50 was in the range of 0.1 to 1 µM and the Emax was greater than 95%.

On to `C[C@@H]1CN(c2cccc(-c3csc(NC(=O)CNC(=O)c4ccc5c(c4)[C@@H](C)COC5)n3)n2)C[C@H](C)O1` [Compound 320, (R)-N-(2-((4-(6-((cis)-2,6-dimethylmorpholino)pyridin-2-yl)thiazol-2-yl)amino)-2-oxoethyl)-4-methylisochromane-6-carboxamide], for which, at BRM, the “BRM Max % Inhibition” value is greater than 95% and the IC50 was less than 0.1 µM. Further, on BRG-1, the IC50 fell in the range of 0.1 to 1 µM and the Emax is greater than 95%.

As for `C[C@@]1(F)COCc2ccc(C(=O)NCC(=O)Nc3nc(-c4cccc(C#N)c4)cs3)cc21` [Compound 315, (S)-N-(2-((4-(3-cyanophenyl)thiazol-2-yl)amino)-2-oxoethyl)-4-fluoro-4-methylisochromane-6-carboxamide], on BRM, the “BRM Max % Inhibition” value was greater than 95% and the IC50 was less than 0.1 µM. Also, at BRG-1, the IC50 was in the range of 0.1 to 1 µM and the Emax was greater than 95%.

For the molecule `C[C@@H]1CN(c2cccc(-c3csc(NC(=O)CNC(=O)c4ccc5c(c4)C(C)(O)CCO5)n3)c2)C[C@H](C)O1` (stereo partly drawn) [Compound 136, N-[2-[[4-[3-[(cis)-2,6-dimethylmorpholin-4-yl]phenyl]thiazol-2-yl]amino]-2-oxo-ethyl]-4-hydroxy-4-methylchromane-6-carboxamide], on BRM, the “BRM Max % Inhibition” value was greater than 90% and the IC50 fell in the range of 0.1 to 1 µM. Besides, on BRG-1, the IC50 fell in the range of 1 to 5 µM and the Emax is greater than 70%.

For `C[C@@H]1CN(c2cccc(-c3csc(NC(=O)CNC(=O)c4ccc5c(c4)[C@@](C)(F)COC5)n3)n2)C[C@H](C)O1` [Compound 412, (R)-N-(2-((4-(6-((cis)-2,6-dimethylmorpholino)pyridin-2-yl)thiazol-2-yl)amino)-2-oxoethyl)-4-fluoro-4-methylisochromane-6-carboxamide], at BRM, the “BRM Max % Inhibition” value is given as greater than 90% and the IC50 is 0.1 to 1 µM. On BRG-1, the IC50 was 0.1 to 1 µM and the Emax is greater than 90%.

In the case of `C[C@@H]1CN(c2cccc(-c3csc(NC(=O)CNC(=O)c4cnc5c(c4)[C@@](C)(CO)CC5)n3)c2)C[C@H](C)O1` [Compound 144, (S)-N-(2-((4-(3-((cis)-2,6-dimethylmorpholino)phenyl)thiazol-2-yl)amino)-2-oxoethyl)-5-(hydroxymethyl)-5-methyl-6,7-dihydro-5H-cyclopenta[b]pyridine-3-carboxamide], on BRM, the “BRM Max % Inhibition” value is listed as greater than 95% and the IC50 was in the range of 0.1 to 1 µM. Also, at BRG-1, the IC50 fell in the range of 0.1 to 1 µM and the Emax was greater than 80%.

In the case of `C[C@@H]1CN(c2cccc(-c3csc(NC(=O)CNC(=O)c4ccc5c(c4)C(F)(C(F)F)COC5)n3)c2)C[C@H](C)O1` (stereo in doubt) [Compound 307, (R)-4-(difluoromethyl)-N-(2-((4-(3-((cis)-2,6-dimethylmorpholino)phenyl)thiazol-2-yl)amino)-2-oxoethyl)-4-fluoroisochromane-6-carboxamide], at BRM, the “BRM Max % Inhibition” value is greater than 95% and the IC50 is less than 0.1 µM. Besides, at BRG-1, the IC50 was less than 0.1 µM and the Emax was greater than 95%.

With `C[C@@H]1CN(c2cccc(-c3csc(NC(=O)CNC(=O)c4ccc5c(c4)C4(CCO5)CCO4)n3)n2)C[C@H](C)O1` (stereo partly shown) [Compound 360], the IC50 on BRM is less than 0.1 µM. Besides, on BRG-1, the IC50 lay in the range of 1 to 5 µM and the Emax is greater than 95%.

On to `C[C@@]1(C#N)COCc2ccc(C(=O)NCC(=O)Nc3nc(-c4cccc([C@H]5CC5(F)F)n4)cs3)cc21` [Compound 387, (R)-4-cyano-N-(2-((4-(6-((R)-2,2-difluorocyclopropyl)pyridin-2-yl)thiazol-2-yl)amino)-2-oxoethyl)-4-methylisochromane-6-carboxamide], for which, on BRM, the “BRM Max % Inhibition” value is greater than 95% and the IC50 is less than 0.1 µM. Also, at BRG-1, the IC50 was 1 to 5 µM and the Emax is greater than 95%.

`CC(C)S(=O)(=O)c1cccc(C(=O)NCC(=O)Nc2nc(-c3cccc(CO[C@H]4CC[C@H](O)CC4)c3)cs2)c1` [Compound 17, N-(2-((4-(3-((((1R,4R)-4-hydroxycyclohexyl)oxy)methyl)phenyl)thiazol-2-yl)amino)-2-oxoethyl)-3-(isopropylsulfonyl)benzamide]: at BRM, the “BRM Max % Inhibition” value is greater than 90% and the IC50 was 0.1 to 1 µM. On BRG-1, the IC50 was greater than 5 µM and the Emax was greater than 60%.

For the molecule `C[C@@H]1CN(c2cccc(-c3csc(NC(=O)CNC(=O)c4ccnc(C(C)(C#N)CO)c4)n3)c2)C[C@H](C)O1` (stereo in doubt) [Compound 427, 2-((R)-2-cyano-1-hydroxypropan-2-yl)-N-(2-((4-(3-((cis)-2,6-dimethylmorpholino)phenyl)thiazol-2-yl)amino)-2-oxoethyl)isonicotinamide], on BRM (30 nM BRM, 400 μM ATP), the “BRM Max % Inhibition” value was greater than 85% and the IC50 lay in the range of 0.1 to 1 µM. For the same molecule, at BRG-1 (30 nM BRG-1, 400 μM ATP), the IC50 is greater than 5 µM and the Emax is greater than 85%.

Regarding `Cc1ccc(C(=O)NCC(=O)Nc2nc(-c3cccc(N4C[C@@H](C)O[C@@H](C)C4)c3)cs2)cc1S(=O)(=O)C(C)C` [Compound 125, N-(2-((4-(3-((cis)-2,6-dimethylmorpholino)phenyl)thiazol-2-yl)amino)-2-oxoethyl)-3-(isopropylsulfonyl)-4-methylbenzamide], on BRM, the “BRM Max % Inhibition” value was greater than 95% and the IC50 was less than 0.1 µM. At BRG-1, the IC50 lay within 0.1 to 1 µM and the Emax was greater than 80%.

For `Cn1ncc2ccc(-c3csc(NC(=O)CNC(=O)c4ccc5c(c4)[C@@](C)(CO)CC5)n3)cc21` [Compound 261, (S)-3-(hydroxymethyl)-3-methyl-N-(2-((4-(1-methyl-1H-indazol-6-yl)thiazol-2-yl)amino)-2-oxoethyl)-2,3-dihydro-1H-indene-5-carboxamide], at BRM, the “BRM Max % Inhibition” value is reported as greater than 60% and the IC50 lay in the range of 1 to 5 µM. Besides, on BRG-1, the IC50 is greater than 5 µM and the Emax is greater than 30%.
